The values below come from paper PMC9320067, “Novel Potent and Selective Agonists of the GPR55 Receptor Based on the 3-Benzylquinolin-2(1H)-One Scaffold” (Pharmaceuticals, 2022).

In series [1] the target is T1, hGPR55 (Homo sapiens, UniProt Q9Y2T6).
T1 construct: host or cells: CHO-K1
The experiment in a line: [3H]CP55,940 radioligand displacement assay on hGPR55 CHO cell membranes. The class given is binding. The method, then:
(§1) Assays were performed as described previously and summarized here. […] Binding was initiated by the addition of transfected hGPR55, hCB1R or hCB2R CHO cell membranes (25 μg protein per well). All assays were performed at 37°C for 120 min prior to quenching with ice-cold Tris binding buffer followed by vacuum filtration using a 24-well sampling manifold (Brandel Cell Harvester; Brandel, Inc., Gaithersburg, MD, USA) and Brandel GF/B filters. Each reaction well was washed six times with 1.2 mL aliquots of Tris-binding buffer. The filters were air-dried overnight and then placed in 5 mL of scintillation fluid (Ultima Gold XR, Perkin Elmer, Inc., Waltham, MA, USA). Liquid scintillation spectrometry was used for quantifying radioactivity.
(§2) Data for p-ERK in-cell westerns are shown as fold over vehicle response (i.e., 1). Estimates of Ki, EC50 and Emax were determined using non-linear regression (3 parameters) (GraphPad, Prism, v. 9.0). p < 0.05 was determined to be significant.
Background: Displacement assays read how much labelled ligand stays bound in the presence of the test substance.

The target of series [2] is T1, hGPR55. The experiment in a line: p-ERK1/2 activation, in-cell Western, CHO cells expressing hGPR55. The series is classed as cell-based. The settings on record: for Emax, p-ERK1/2 activation: fold over vehicle, CHO cells expressing hGPR55, 30 min, mean ± SEM. The method, then:
Downstream signaling by hGPR55 was investigated by quantifying p-ERK activation in the in-cell Western assay.
Cells were seeded at approximately 2000 cells/well in 96-well plates and treated with 0.1–10 μM compounds for 30 min and were then fixed for 10 min at room temperature with 4% paraformaldehyde. Cells were washed 3 times with 100 μL 1X PBS for 5 min each. Cells were incubated with blocking solution (PBS, 20% Odyssey blocking buffer, and 0.1% TritonX-100) for 1 h at room temperature. Next, cells were exposed to primary antibodies for p-ERK1/2(T202/Y204) (mouse monoclonal IgG, Cat# sc-136521) or ERK1/2 (rabbit polyclonal IgG, Cat# sc-292838) (Santa Cruz Biotechnology, Santa Cruz, CA) diluted (1:200) in blocking solution overnight at 4 °C. Cells were washed 3 times with 100 μL PBS for 5 min each. Cells were exposed to the secondary antibodies goat polyclonal anti-rabbit IgG IR^Dye800-conjugated antibody diluted 1:500 (Li-Cor Biosciences, IgG, Cat# P/S 926-32210, RRID AB-2687825, lot# C50113-18) and goat polyclonal anti-mouse IgG IR^Dye680-conjugated antibody diluted 1:500 (Li-Cor Biosciences, IgG, Cat# P/N 925-68070, RRID AB-2651128, lot# C50113-17) for 1 h at room temperature. Cells were washed 3 times with 100 μL PBS for 5 min each. Analyses were conducted using the Odyssey Imaging system and software (version 3.0; Li-Cor).
as §2

The target of another series is T2, human CB2R (Homo sapiens, UniProt P34972).
T2 construct: host or cells: CHO-K1
T2 sequence (P34972 whole entry): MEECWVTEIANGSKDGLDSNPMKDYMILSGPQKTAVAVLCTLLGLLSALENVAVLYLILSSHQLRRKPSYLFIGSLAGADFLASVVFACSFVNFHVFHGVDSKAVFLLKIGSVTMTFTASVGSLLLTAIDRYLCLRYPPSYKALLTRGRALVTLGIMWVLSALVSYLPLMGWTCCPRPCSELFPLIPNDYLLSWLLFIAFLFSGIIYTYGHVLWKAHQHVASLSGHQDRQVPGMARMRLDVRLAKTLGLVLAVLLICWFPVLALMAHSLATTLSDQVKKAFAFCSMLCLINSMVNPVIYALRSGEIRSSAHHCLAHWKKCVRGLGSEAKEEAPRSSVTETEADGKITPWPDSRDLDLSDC
The experiment in a line: [3H]CP55,940 radioligand displacement assay on hCB2R CHO cell membranes. The class given is binding. The method, then:
as §1, §2

Another series concerns the target T3, human CB1R (Homo sapiens, UniProt P21554).
T3 construct: HitHunter) 95-0071C2; host or cells: CHO-K1
Put plainly: [3H]CP55,940 radioligand displacement assay on hCB1R CHO cell membranes. The class given is binding. The method, then: as §1, §2

The mark [3] stands for this setting: CHO cells expressing hGPR55, 30 min treatment, mean (95% CI), n = 6, read-out: EC50 95% CI, p-ERK1/2 activation.

Where two headings read alike, the source gives them in different places. A value given as a limit tells only on which side of the number the result lay.

T1 sequence (Q9Y2T6 whole entry): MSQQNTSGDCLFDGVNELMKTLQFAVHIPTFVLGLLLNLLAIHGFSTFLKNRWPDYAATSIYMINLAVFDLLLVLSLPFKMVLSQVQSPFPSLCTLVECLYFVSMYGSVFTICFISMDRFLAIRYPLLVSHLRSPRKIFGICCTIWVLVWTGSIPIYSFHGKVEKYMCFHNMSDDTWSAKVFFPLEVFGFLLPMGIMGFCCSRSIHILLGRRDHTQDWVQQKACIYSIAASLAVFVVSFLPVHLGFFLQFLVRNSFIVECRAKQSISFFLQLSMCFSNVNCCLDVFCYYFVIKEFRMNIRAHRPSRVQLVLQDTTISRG
T3 sequence (P21554 whole entry): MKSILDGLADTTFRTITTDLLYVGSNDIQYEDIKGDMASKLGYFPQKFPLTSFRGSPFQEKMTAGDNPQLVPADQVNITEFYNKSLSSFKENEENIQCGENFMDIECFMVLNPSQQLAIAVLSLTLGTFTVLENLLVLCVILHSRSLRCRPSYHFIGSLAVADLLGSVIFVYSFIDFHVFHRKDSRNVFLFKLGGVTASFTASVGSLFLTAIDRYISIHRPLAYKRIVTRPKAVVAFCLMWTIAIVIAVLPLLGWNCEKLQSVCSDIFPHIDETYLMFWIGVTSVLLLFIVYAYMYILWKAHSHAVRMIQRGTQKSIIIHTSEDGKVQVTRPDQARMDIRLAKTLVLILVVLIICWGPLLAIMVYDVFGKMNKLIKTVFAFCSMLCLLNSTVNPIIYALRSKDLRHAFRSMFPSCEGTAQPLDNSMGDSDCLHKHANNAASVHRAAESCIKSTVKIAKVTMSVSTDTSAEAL

As usually defined, the Ki is the equilibrium dissociation constant of an inhibitor or competing ligand from its target. In turn, `CCCCCCC(C)(C)c1ccc([C@@H]2C[C@H](O)CC[C@H]2CCCO)c(O)c1` [CP55,940, reference compound] yielded a Ki on hGPR55 [1] of 13 nM. In addition, the EC50 on hGPR55 [2] stood at 4.2 nM.

A word on the melting point: it is the temperature of the solid-liquid transition. Regarding `CCCCc1cc(OC)c2cc(Cc3ccccc3OC)c(=O)[nH]c2c1` [Compound 1, 7-n-Butyl-5-methoxy-3-(2-methoxybenzyl)quinolin-2(1H)-one], the melting point is 208 to 210 °C. The molecule further showed a Ki at human CB2R of more than 10000 nM. Moreover, the Ki at human CB1R is more than 10000 nM. Further, at hGPR55 [1] (read-out: Ki hGPR55), the Ki was found to be 14 nM. Also, at hGPR55 [2] (setting [3]), the EC50 was found to be 6.4 nM. For the same molecule, the “Emax, p-ERK1/2 activation” value at hGPR55 [2] (n = 6) amounted to 1.5 ± 0.06 Fold.

In turn, `CCCCc1cc(OC)c2cc(Cc3ccccc3OC)c(=O)n(C)c2c1` [Compound 2, 7-n-Butyl-5-methoxy-3-(2-methoxybenzyl)-1-methylquinolin-2(1H)-one] yielded a melting point of 78 to 80 °C. At human CB2R, affinity was put at a Ki of 6.9 nM. For the same molecule, at human CB1R, the Ki was more than 10000 nM. On hGPR55 [1] (read-out: Ki hGPR55), the Ki is 1.2 nM. The EC50 on hGPR55 [2] (setting [3]) turned out to be 1.1 nM. Also, the “Emax, p-ERK1/2 activation” value at hGPR55 [2] (n = 6) was determined as 1.4 ± 0.07 Fold.

Regarding `CCCCc1cc(O)c2cc(Cc3ccccc3O)c(=O)[nH]c2c1` [Compound 3, 7-n-Butyl-5-hydroxy-3-(2-hydroxybenzyl)quinolin-2(1H)-one], the melting point is 252 to 254 °C. Also, at human CB2R, the Ki was more than 10000 nM. The same molecule showed a Ki at human CB1R of 5.1 nM. In addition, the Ki on hGPR55 [1] (read-out: Ki hGPR55) was determined as 6.2 nM. Moreover, at hGPR55 [2] (setting [3]), the EC50 worked out at 1.4 nM. Further, on hGPR55 [2] (n = 6), the “Emax, p-ERK1/2 activation” value was 1.2 ± 0.04 Fold.

Regarding `CCCCc1cc(O)c2cc(Cc3ccccc3O)c(=O)n(C)c2c1` [Compound 4, 7-n-Butyl-5-hydroxy-3-(2-hydroxybenzyl)-1-methylquinolin-2(1H)-one], the melting point was in the range of 223 to 225 °C. The molecule further yielded a Ki at human CB2R of 7.9 nM. Further, the inhibition constant Ki on human CB1R is 29 nM. Also, the Ki on hGPR55 [1] (read-out: Ki hGPR55) is 7.1 nM. At hGPR55 [2] (setting [3]), the EC50 was found to be 11 nM. At hGPR55 [2] (n = 6), the “Emax, p-ERK1/2 activation” value came to 1.3 ± 0.03 Fold.

On to `C=C(C)[C@@H]1CCC(C)=C[C@H]1c1c(C)cc(O)cc1O` [Compound O-1602, O-1602, reference compound], for which, at hGPR55 [1] (read-out: Ki hGPR55), the Ki turned out to be 10 nM. Moreover, the EC50 on hGPR55 [2] (setting [3]) worked out at 61 nM. Also, the “Emax, p-ERK1/2 activation” value at hGPR55 [2] (n = 6) turned out to be 1.3 ± 0.03 Fold.
